Where two headings read alike, the source gives them in different places.
Columns and labels:
[1] = tested on: MOLP-8 human multiple myeloma cell line; experiment: Caspase-Glo 3/7 assay in MOLP-8 cells; assay type: cell-based; conditions: Caspase-Glo 3/7, 2 hours incubation, averaged over all runs on all batches, read-out: MOLP8 AC50
Source text: MCL-1 is a regulator of apoptosis and is highly over-expressed in tumor cells that escape cell death. The assay evaluates the cellular potency of small-molecule compounds targeting regulators of the apoptosis pathway, primarily MCL-1, Bfl-1, Bcl-2, and other proteins of the Bcl-2 family. Protein-protein inhibitors disrupting the interaction of anti-apoptotic regulators with BH3-domain proteins initiate apoptosis.
The Caspase-Glo® 3/7 Assay is a luminescent assay that measures caspase-3 and -7 activities in purified enzyme preparations or cultures of adherent or suspension cells. The assay provides a proluminescent caspase-3/7 substrate, which contains the tetrapeptide sequence DEVD. This substrate is cleaved to release aminoluciferin, a substrate of luciferase used in the production of light. Addition of the single Caspase-Glo® 3/7 Reagent in an “add-mix-measure” format results in cell lysis, followed by caspase cleavage of the substrate and generation of a “glow-type” luminescent signal.
This assay uses the MOLP-8 human multiple myeloma cell line, which is sensitive to MCL-1 inhibition.
Cell cultures were maintained between 0.2 and 2.0×10^6 cells/mL. The cells were harvested by collection in 50 mL conical tubes. The cells were then pelleted at 500 g for 5 mins before removing supernatant and resuspension in fresh pre-warmed culture medium. The cells were counted and diluted as needed.
The assay reagent was prepared by transferring the buffer solution to the substrate vial and mixing. The solution may be stored for up to 1 week at 4° C. with negligible loss of signal.
Compounds were delivered in assay-ready plates (Proxiplate) and stored at −20° C. Assays always include 1 reference compound plate containing reference compounds. The plates were spotted with 40 nL of compounds (0.5% DMSO final in cells; serial dilution; 30 μM highest conc. 1/3 dilution, 10 doses, duplicates). The compounds were used at room temperature and 4 μL of pre-warmed media was added to all wells except column 2 and 23. The negative control was prepared by adding 1% DMSO in media. The positive control was prepared by adding the appropriate positive control compound in final concentration of 60 μM in media. The plate was prepared by adding 4 μL negative control to column 23, 4 μL positive control to column 2 and 4 μL cell suspension to all wells in the plate. The plate with cells was then incubated at 37° C. for 2 hours. The assay signal reagent is the Caspase-Glo solution described above, and 8 μL was added to all wells. The plates were then sealed and measured after 30 minutes.
The activity of a test compound was calculated as percent change in apoptosis induction as follows: […]

[2] = target: Myeloid Cell Leukemia 1(Mcl-1) (Homo sapiens (Human), UniProt Q07820); experiment: Terbium labeled Mcl-1 HTRF binding assay with Cy5-labeled BIM BH3 peptide; conditions: obtained after recalibration of the equipment; averaged values over several runs
Description: Terbium labeled Myeloid Cell Leukemia 1(Mcl-1) homogeneous time-resolved fluorescence (HTRF) binding assay utilizing the BIM BH3 peptide (H2N-(C/Cy5Mal) WIAQELRRIGDEFN-OH) as the binding partner for Mcl-1.
This assay evaluated inhibition of the BH3 domain: Mcl-1 interaction by measuring the displacement of Cy5-labeled BIM BH3 peptide (H2N—(C/Cy5Mal) WIAQELRRIGDEFN-OH) in the HTRF assay format.
The following assay and stock buffers were prepared for use in the assay: (a) Stock buffer: 10 mM Tris-HCl, pH=7.5+150 mM NaCl, filtered, sterilized, and stored at 4° C.; and (b) 1× assay buffer, where the following ingredients were added fresh to stock buffer: 2 mM dithiothreitol (DTT), 0.0025% Tween-20, 0.1 mg/mL bovine serum albumin (BSA). The 1×Tb-Mcl-1+Cy5 Bim peptide solution was prepared by diluting the protein stock solution using the 1× assay buffer (b) to 25 pM Tb-Mcl-1 and 8 nM Cy5 Bim peptide.
Using the Acoustic ECHO, 100 nL of 100× test compound(s) were dispensed into individual wells of a white 384-well Perkin Elmer Proxiplate, for a final compound concentration of lx and final DMSO concentration of 1%. Inhibitor control and neutral control (NC, 100 nL of 100% DMSO) were stamped into columns 23 and 24 of assay plate. Into each well of the plate was then dispensed 10 μL of the 1×Tb-Mcl-1+Cy5 Bim peptide solution. The plate was centrifuged with a cover plate at 1000 rpm for 1 minute, then incubated for 60 minutes at room temperature with plates covered.
The TR-FRET signal was read on an BMG PHERAStar FSX MicroPlate Reader at room temperature using the HTRF optic module (HTRF: excitation: 337 nm, light source: laser, emission A: 665 nm, emission B: 620 nm, integration start: 60 μs, integration time: […]).
The BMG PHERAStar FSX MicroPlate Reader was used to measure fluorescence intensity at two emission wavelengths—665 nm and 620 nm—and report relative fluorescence units (RFU) for both emissions, as well as a ratio of the emissions (665 nm/620 nm)*10,000. The RFU values were normalized to percent inhibition as follows:
% inhibition=((NC−IC)−(compound−IC))/(NC−IC))*100
where IC (inhibitor control, low signal)=mean signal of 1×Tb-MCl-1+Cy5 Bim peptide+inhibitor control or 100% inhibition of Mcl-1; NC (neutral control, high signal)=mean signal 1×Tb-MCl-1+Cy5 Bim peptide with DMSO only or 0% inhibition An 11-point dose response curve was generated to determine IC50 values (using GenData) based on the following equation:
Y=Bottom+(Top−Bottom)/(1+10^((IogIC50−X)*HillSlope))
where Y=% inhibition in the presence of X inhibitor concentration; Top=100% inhibition derived from the IC (mean signal of Mcl-1+inhibitor control); Bottom=0% inhibition derived from the NC (mean signal of Mcl-1+DMSO); Hillslope=Hill coefficient; and IC50=concentration of compound with 50% inhibition in relation to top/neutral control (NC).
In this assay [L]=8 nM and Kd=10 nM

Myeloid Cell Leukemia 1(Mcl-1), sequence (Q07820 whole entry): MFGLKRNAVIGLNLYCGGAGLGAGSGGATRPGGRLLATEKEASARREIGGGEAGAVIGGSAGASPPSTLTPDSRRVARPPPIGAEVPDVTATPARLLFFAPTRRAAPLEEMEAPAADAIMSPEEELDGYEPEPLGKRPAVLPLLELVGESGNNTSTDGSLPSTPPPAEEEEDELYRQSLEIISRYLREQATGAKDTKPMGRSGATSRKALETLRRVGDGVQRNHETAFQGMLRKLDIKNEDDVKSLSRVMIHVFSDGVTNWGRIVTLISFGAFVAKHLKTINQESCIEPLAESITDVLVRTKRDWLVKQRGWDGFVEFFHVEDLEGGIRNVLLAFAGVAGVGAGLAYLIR

SMILES	AC50 [1] [nM]	Ki [2] [nM]	AC50 ([1]; Homo sapiens, MOLP-8, 2 h) [nM]
COCC1(CO)/C(F)=C/C[C@H](C)[C@@H](C)S(=O)(=O)NC(=O)c2ccc3c(c2)N(C[C@@H]2CCN21)C[C@@]1(CCCc2cc(Cl)ccc21)CO3 (single isomer, unassigned) [Compound 39]	630	1.84	–
COCCOCC1(CO)/C(F)=C/C[C@H](C)[C@@H](C)S(=O)(=O)NC(=O)c2ccc3c(c2)N(C[C@@H]2CCN21)C[C@@]1(CCCc2cc(Cl)ccc21)CO3 (single isomer, unassigned) [Compound 40]	194	0.16	–
COCCOCC1(CO)/C(F)=C/C[C@H](C)[C@@H](C)S(=O)(=O)NC(=O)c2ccc3c(c2)N(C[C@@H]2CCN21)C[C@@]1(CCCc2cc(Cl)ccc21)CO3 (single isomer, unassigned) [Compound 42]	730	0.9	–
C[C@@H]1[C@@H](C)C/C=C(\F)[C@H](CN2CCN3CCOC[C@@H]3C2)N2CC[C@H]2CN2C[C@@]3(CCCc4cc(Cl)ccc43)COc3ccc(cc32)C(=O)NS1(=O)=O [Compound 28]	–	0.09	120
C[C@@H]1[C@@H](C)C/C=C(\F)[C@H](COCCCN2CCOCC2)N2CCC[C@H]2CN2C[C@@]3(CCCc4cc(Cl)ccc43)COc3ccc(cc32)C(=O)NS1(=O)=O [Compound 34]	–	0.21	458
C[C@@H]1[C@@H](C)C/C=C(\F)C(CO)(CO)N2CCC[C@H]2CN2C[C@@]3(CCCc4cc(Cl)ccc43)COc3ccc(cc32)C(=O)NS1(=O)=O [Compound 35]	–	0.14	547
C[C@@H]1[C@@H](C)C/C=C(\F)C(CO)(CO)N2CC[C@H]2CN2C[C@@]3(CCCc4cc(Cl)ccc43)COc3ccc(cc32)C(=O)NS1(=O)=O [Compound 36]	–	0.23	2390
COCC1(COC)/C(F)=C/C[C@H](C)[C@@H](C)S(=O)(=O)NC(=O)c2ccc3c(c2)N(C[C@@H]2CCN21)C[C@@]1(CCCc2cc(Cl)ccc21)CO3 [Compound 37]	–	0.45	253
